Where two headings read alike, the source gives them in different places.
Columns and labels:
HaxyOBP15 [1] = molecular target: T1, HaxyOBP15 (Harmonia axyridis, UniProt A0A8K1AM29); assay: Fluorescent probe binding (titration of protein with probe); conditions: probe titrated to 2-16 μM, Tris-HCl 50 mM pH 7.4; read-out: dissociation constant of probe with HaxyOBP15
Protocol: A Cary Eclipse Fluorescence Spectrophotometer (Agilent Technologies, United States) was used to determine the results of the binding assay. N-phenyl-1-naphthylamine (1-NPN) for HaxyOBP15 and 4,4′-Dianilino-1,1′-binaphthyl-5,5′-disulfonic acid dipotassium salt (bis-ANS) for HaxyOBP3, 5, and 12 were chosen as the fluorescent probe. The excitation wavelength was 337 nm of 1-NPN and 295 nm of bis-ANS, and the emission spectrum was recorded between 350 and 500 nm for 1-NPN and between 300 and 550 nm for bis-ANS. The recombinant proteins prepared in Tris–HCl (50 mM, pH 7.4) was titrated with aliquots of 1 mM 1-NPN or bis-ANS to final concentrations ranging from 2 to 16 μM to measure the binding affinity. To further measure the binding affinity of ligands to HaxyOBPs, proteins and fluorescent probe at 2 μM were titrated with aliquots of 1 mM odorants. The binding constant (K1-NPN/bis-ANS) of 1-NPN or bis-ANS to HaxyOBPs was calculated by GraphPad Prism 5 software (GraphPad Software Inc.) with the equation Ki = [IC50]/(1 + [1-NPN]/K1-NPN) or [IC50]/(1 + [bis-ANS]/Kbis-ANS), where [1-NPN]/[bis-ANS] is the free concentration of 1-NPN/bis-ANS, and K1-NPN/Kbis-ANS is the dissociation constant of the protein/1-NPN (bis-ANS).

HaxyOBP15 [2] = molecular target: T1, HaxyOBP15; assay: Competitive fluorescence binding assay (1-NPN probe); conditions: for Ki: Ki = [IC50]/(1 + [1-NPN]/K1-NPN)
Protocol: (§1) The positive plasmid was then transformed into BL21 (DE3) cells for the expression of recombinant proteins, and proteins induced with 0.5 mmol/L isopropyl β-D-1-thiogalactopyranoside (IPTG) for 4 h at 37°C (HaxyOBP3) or 16 h at 15°C (HaxyOBP5, 12, and 15). […] Inclusion bodies were denatured by 8 M urea.
(§2) Protein purification was performed with His-Tag Purification Resin column (Genscript Biology Company, Nanjing, Jiangsu, China) and purified by gradient imidazole buffer (20, 50, 100, 250, and 500 mmol·L^−1). The purity and size of proteins were detected by SDS-PAGE, and concentrations of proteins were measured with bicinchoninic acid (BCA) Protein Assay Kit (ThermoFisher Scientific-Life Technologies, Carlsbad, CA, United States).
(§3) A Cary Eclipse Fluorescence Spectrophotometer (Agilent Technologies, United States) was used to determine the results of the binding assay. N-phenyl-1-naphthylamine (1-NPN) for HaxyOBP15 and 4,4′-Dianilino-1,1′-binaphthyl-5,5′-disulfonic acid dipotassium salt (bis-ANS) for HaxyOBP3, 5, and 12 were chosen as the fluorescent probe.

HaxyOBP5 = HaxyOBP5 (Harmonia axyridis, UniProt A0A8J9RUK3); assay: Competitive fluorescence binding assay (bis-ANS probe); conditions: for Ki: Ki = [IC50]/(1 + [bis-ANS]/Kbis-ANS)
Protocol: as §1, §2, §3

HaxyOBP12 = HaxyOBP12 (Harmonia axyridis, UniProt A0A8K1AMY0); assay: as above; conditions: recombinant protein and bis-ANS at 2 μM, Tris-HCl 50 mM pH 7.4; for Ki: Ki = [IC50]/(1 + [bis-ANS]/Kbis-ANS)
Protocol: as §1, §2, §3

HaxyOBP3 = HaxyOBP3 (Harmonia axyridis, UniProt A0A8K1AM44); assay: as above; conditions: recombinant protein and bis-ANS at 2 μM, Tris-HCl 50 mM pH 7.4; for Ki: Ki = [IC50]/(1 + [bis-ANS]/Kbis-ANS)
Protocol: as §1, §2, §3

[3] = recombinant protein and 1-NPN at 2 μM, Tris-HCl 50 mM pH 7.4
[4] = recombinant protein and 1-NPN at 2 μM, Tris-HCl 50 mM pH 7.4, read-out: HaxyOBP15 IC50
[5] = HaxyOBP5 Ki, recombinant protein and bis-ANS at 2 μM, Tris-HCl 50 mM pH 7.4

Sequence of HaxyOBP5 (A0A8J9RUK3 entry or part of it): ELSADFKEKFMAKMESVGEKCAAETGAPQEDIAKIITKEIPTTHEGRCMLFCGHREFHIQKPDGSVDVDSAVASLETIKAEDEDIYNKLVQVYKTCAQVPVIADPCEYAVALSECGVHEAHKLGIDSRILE
T1 sequence (A0A8K1AM29 entry or part of it): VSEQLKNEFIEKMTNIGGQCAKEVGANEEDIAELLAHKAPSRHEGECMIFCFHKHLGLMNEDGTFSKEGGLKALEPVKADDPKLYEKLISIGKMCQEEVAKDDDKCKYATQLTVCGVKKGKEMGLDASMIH
Sequence of HaxyOBP12 (A0A8K1AMY0 entry or part of it): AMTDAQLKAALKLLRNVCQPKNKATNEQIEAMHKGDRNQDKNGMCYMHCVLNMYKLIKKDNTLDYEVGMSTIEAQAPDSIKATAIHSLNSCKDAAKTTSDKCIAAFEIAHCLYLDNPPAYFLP
Sequence of HaxyOBP3 (A0A8K1AM44 entry or part of it): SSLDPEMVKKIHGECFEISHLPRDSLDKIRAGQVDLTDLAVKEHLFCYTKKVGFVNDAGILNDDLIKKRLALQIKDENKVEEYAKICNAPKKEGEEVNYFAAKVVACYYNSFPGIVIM

Row | IC50 (HaxyOBP15 [2]) [µM] | SMILES | Ki (HaxyOBP15 [2]; [3]) [µM] | IC50 (HaxyOBP15 [2]; [4]) [µM] | Ki (HaxyOBP5; [5]) [µM] | other results
1 |  | c1ccc(Nc2cccc3ccccc23)cc1 [1-NPN, N-phenyl-1-naphthylamine] |  |  |  | Kd (HaxyOBP15 [1]): 5.07 ± 0.31 µM
2 |  | C=CC(=C)CC/C=C(\C)CCC=C(C)C [(E)-β-Farnesene] | 4.33 ± 0.4 | 5.81 ± 0.46 |  | 
3 |  | CC(=O)CCC1=C(C)CCCC1(C)C [Dihydro-β-ionone] | 24 ± 2.65 | 30.9 ± 3.01 |  | 
4 |  | CC(=O)OC/C=C(\C)CCC=C(C)C [Geranyl acetate] | 23.4 ± 3.04 | 30.3 ± 3.58 |  | 
5 |  | COC(=O)c1ccccc1O [Methyl salicylate] |  |  | 11.7 | Ki (HaxyOBP5; recombinant protein and bis-ANS at 2 μM, Tris-HCl 50 mM pH 7.4, read-out: HaxyOBP5 Ki): 18.1 ± 1.33 µM; IC50 (HaxyOBP5; recombinant protein and bis-ANS at 2 μM, Tris-HCl 50 mM pH 7.4, read-out: HaxyOBP5 IC50): 26.4 ± 1.96 µM
6 |  | CCCCCCCCC=O [Nonyl aldehyde] | 29.6 ± 1.86 | 38.5 ± 2.03 |  | 
7 |  | COc1ccc(C=O)cc1 [p-Anisaldehyde] |  |  | 13.4 ± 0.67 | IC50 (HaxyOBP12): 25.5 ± 1.99 µM; Ki (HaxyOBP12): 16.1 ± 1.21 µM; IC50 (HaxyOBP3): 34.1 ± 1.06 µM; Ki (HaxyOBP3): 24.4 ± 0.37 µM; IC50 (HaxyOBP5): 19.9 ± 0.7 µM
8 | 12 ± 0.56 | CC(=O)/C=C/C1C(C)=CCCC1(C)C (stereo not drawn) [α-Ionone] |  |  |  | 
9 | 6.99 ± 0.21 | CC(=O)/C=C/C1=C(C)CCCC1(C)C [β-Ionone] |  |  | 11.7 ± 0.86 | IC50 (HaxyOBP12): 24 ± 1.56 µM; Ki (HaxyOBP12): 15.2 ± 1.06 µM; IC50 (HaxyOBP3): 25.9 ± 2.85 µM; Ki (HaxyOBP3): 18.8 ± 2.14 µM; IC50 (HaxyOBP5): 17.8 ± 1.52 µM

Row | SMILES | IC50 (HaxyOBP15 [2]) [µM] | Ki (HaxyOBP15 [2]; [3]) [µM] | IC50 (HaxyOBP15 [2]; [4]) [µM] | Ki (HaxyOBP5; [5]) [µM] | other results
10 | C=CC(C)(CCC=C(C)C)OC(C)=O (stereo not drawn) [Linalyl acetate] | 40 ± 2.91 |  |  |  | 
